Source: patent US20260103468A1, “FUSED RING COMPOUND, PHARMACEUTICAL COMPOSITION, AND USE THEREOF” (Hainan Simcere Zaiming Pharmaceutical Co., Ltd., priority 2022, published 2026)

Key:
[1] = molecular target: T1, GST-labeled human Cereblon WT (Homo sapiens, UniProt Q96SW2); assay: Cereblon binding experiment (HTRF Human Cereblon Binding Kit); details: HTRF competition with XL665-labeled lenalidomide tracer; incubated at room temperature for 3 hours; read-out: IC50 (binding ability to Cereblon)
T1 construct: purchased
T1 sequence (Q96SW2 whole entry): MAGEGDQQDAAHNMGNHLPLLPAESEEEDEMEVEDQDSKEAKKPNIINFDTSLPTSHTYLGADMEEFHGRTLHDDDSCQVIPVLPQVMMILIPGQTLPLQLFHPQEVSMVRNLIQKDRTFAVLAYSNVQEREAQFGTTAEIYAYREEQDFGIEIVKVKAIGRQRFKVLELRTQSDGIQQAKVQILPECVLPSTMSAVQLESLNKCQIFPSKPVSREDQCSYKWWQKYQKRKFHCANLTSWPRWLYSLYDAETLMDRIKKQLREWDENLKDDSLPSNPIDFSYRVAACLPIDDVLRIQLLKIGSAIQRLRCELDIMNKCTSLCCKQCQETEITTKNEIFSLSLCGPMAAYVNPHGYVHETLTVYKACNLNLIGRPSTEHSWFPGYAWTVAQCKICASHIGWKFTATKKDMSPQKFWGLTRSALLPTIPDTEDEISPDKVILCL
From the text: The detection kit (HTRF Human Cereblon Binding Kits) used in the experiment was a detection method for quantitative measurement of Cereblon WT ligand using HTRF® technology. The detection principle was based on HTRF technology. The specifically labeled GST antibody (Eurum Cryptate, donor) bound to the GST-labeled human Cereblon WT ligand and the XL665-labeled lenalidomide tracer (acceptor) at the same time. The donor was excited with a light source to initiate fluorescence resonance energy transfer (FRET) to the acceptor. The acceptor emitted fluorescence at a specific wavelength of 665 nm. After adding the compound, the compound competed with XL665-labeled lenalidomide to prevent FRET. The FRET signal ratio was inversely proportional to the compound concentration.
Compounds of the present disclosure were dissolved in DMSO, with a mother liquor storage concentration of 10 mM. […] The HTRF signal in each well was measured using an Envision plate reader. […]
The ratio of acceptor and donor emission signals was calculated for each well: […]
Data analysis was performed by GraphPad Prism 9. The concentration-effect curves were obtained using a nonlinear four-parameter fitting, and IC50 of compounds was calculated: […]
The binding ability of the compounds of the present disclosure to Cereblon was determined by the above assay, and the measured IC50 values were shown in Table 1.

GSPT1 protein = molecular target: T2, GSPT1 protein (Homo sapiens, UniProt P15170+Q96SW2); assay: Degradation activity experiment on intracellular GSPT1 protein in CAL51 cells; assay type: cell-based; details: anti-GSPT1/anti-α-Tubulin antibody staining in 384-well plate; for DC50: 6 hours; for Dmax: CAL-51, 6 hours, read-out: Maximum degradation rate (%) (GSPT1 protein degradation activity)
T2 construct: endogenous in cells; host or cells: CAL51
T2 sequence (P15170 whole entry): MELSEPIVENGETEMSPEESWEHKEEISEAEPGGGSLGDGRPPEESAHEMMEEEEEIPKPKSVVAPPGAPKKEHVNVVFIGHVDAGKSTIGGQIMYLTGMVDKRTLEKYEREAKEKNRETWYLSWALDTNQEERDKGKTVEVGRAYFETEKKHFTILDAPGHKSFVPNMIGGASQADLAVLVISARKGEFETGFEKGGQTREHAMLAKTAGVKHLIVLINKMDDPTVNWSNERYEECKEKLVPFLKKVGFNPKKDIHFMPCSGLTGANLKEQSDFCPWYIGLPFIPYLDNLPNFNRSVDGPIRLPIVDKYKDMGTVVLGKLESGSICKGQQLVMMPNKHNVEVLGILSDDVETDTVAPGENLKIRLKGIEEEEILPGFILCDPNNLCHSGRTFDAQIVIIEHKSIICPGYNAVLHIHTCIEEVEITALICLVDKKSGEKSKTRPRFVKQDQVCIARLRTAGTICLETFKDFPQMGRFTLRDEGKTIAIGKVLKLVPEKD
T2 sequence (Q96SW2 whole entry): as the sequence (Q96SW2 whole entry) above
T2 sequence (Q16531 whole entry partner): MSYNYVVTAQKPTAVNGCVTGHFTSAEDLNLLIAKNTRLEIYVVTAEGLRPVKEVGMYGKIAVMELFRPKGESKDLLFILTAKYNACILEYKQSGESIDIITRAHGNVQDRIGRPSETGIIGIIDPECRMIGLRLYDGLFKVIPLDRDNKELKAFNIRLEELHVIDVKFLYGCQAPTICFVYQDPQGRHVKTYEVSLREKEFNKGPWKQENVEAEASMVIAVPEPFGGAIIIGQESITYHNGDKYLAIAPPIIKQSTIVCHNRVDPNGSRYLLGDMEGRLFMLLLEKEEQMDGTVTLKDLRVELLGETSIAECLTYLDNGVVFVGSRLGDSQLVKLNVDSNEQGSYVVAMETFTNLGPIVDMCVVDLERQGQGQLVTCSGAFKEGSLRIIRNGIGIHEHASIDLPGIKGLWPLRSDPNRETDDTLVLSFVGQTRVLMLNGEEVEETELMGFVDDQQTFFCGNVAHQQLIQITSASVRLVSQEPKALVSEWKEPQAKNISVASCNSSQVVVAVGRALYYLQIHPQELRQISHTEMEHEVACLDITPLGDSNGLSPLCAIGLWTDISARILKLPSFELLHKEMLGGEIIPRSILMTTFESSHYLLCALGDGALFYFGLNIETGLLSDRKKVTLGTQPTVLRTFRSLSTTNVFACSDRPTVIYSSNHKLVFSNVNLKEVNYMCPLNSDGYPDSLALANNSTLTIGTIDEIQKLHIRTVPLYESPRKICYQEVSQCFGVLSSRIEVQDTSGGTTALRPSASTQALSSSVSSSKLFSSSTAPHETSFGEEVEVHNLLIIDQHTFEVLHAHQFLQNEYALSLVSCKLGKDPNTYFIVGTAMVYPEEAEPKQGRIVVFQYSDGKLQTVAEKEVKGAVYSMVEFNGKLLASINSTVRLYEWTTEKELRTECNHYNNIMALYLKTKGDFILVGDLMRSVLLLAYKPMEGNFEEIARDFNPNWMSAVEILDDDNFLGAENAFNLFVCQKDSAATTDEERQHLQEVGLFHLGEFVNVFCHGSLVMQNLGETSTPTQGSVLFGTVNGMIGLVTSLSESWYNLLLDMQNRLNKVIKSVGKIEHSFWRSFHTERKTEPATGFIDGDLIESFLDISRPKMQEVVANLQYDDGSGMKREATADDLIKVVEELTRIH
Protocol: The medium of CAL51 (CBP60360, Kebai) was removed, and PBS was added for rinsing once, and then digested with trypsin (Trypsin-EDTA (0.25%)) for 5 minutes. After digestion, 10 mL of complete medium (DMEM containing 10% FBS[…]) was added to neutralize trypsin, and the cells were then pipetted, collected, centrifuged at 300 g for 5 min. The cell density was adjusted to 266,667 cells/mL. 30 μL of the cell suspension was added to a 384 well plate. The plate was centrifuged at 300 g for 1 min and then incubated in a cell incubator overnight.
Compounds of the present disclosure were dissolved in DMSO, with a mother liquor storage concentration of 10 mM. The gradient dilution of compound mother liquor was carried out through the dose-response program of the compound dilution and loading instrument. The total experimental volume of the dilution program was 30 μL, with the initial concentration of 100 μM for the tested compound. A4-fold dilution was performed, resulting in 10 concentration points. The positive control compound was CC-885 in Test Example 2, the negative control was DMSO, and the DMSO content of all wells was 0.3%. After the procedure, then the plate was centrifuged and incubated in a carbon dioxide incubator for 6 hours.
After 6 hours of administration, the supernatant was discarded, the cells were washed with 50 μL of cold PBS, and then the cells were fixed with 50 μL/well of 4% paraformaldehyde/universal tissue fixation solution, and incubated at room temperature for 1 hour. The paraformaldehyde was discarded and 50 μL/well PBS-0.1% Triton X-100 was added to permeate cells for 30 minutes. PBS-Triton was discarded, 50 μL/well of blocking buffer (927-70001, Li-COR) was added, and incubated at room temperature for 1 hour. The blocking buffer was removed, and 30 μL/well of rabbit anti-GSPT1 (1: 300) (HPA052488, Sigma), mouse anti-α-Tubulin (1: 2000) (T6074, Sigma) primary antibody mixed antibody was added, and incubated at 4° C. overnight. The well was washed with 50 μL/well PBST (PBS containing 0.1% Tween-20) and soaked for 10 minutes per round for 4 times. 30 μL/well of goat anti-mouse 680RD (P/N 925-68070, Li-COR) and goat anti-rabbit 800CW (P/N 925-32211, Li-COR) secondary antibody mixture (1: 5000) was added and incubated at room temperature away from light for 1-1.5 hours. The well was washed with 50 μL/well PBST and soaked for 10 min per round for 4 times. The centrifuge plate was turned upside down, covered with toilet paper, then centrifuged at 1000 rpm/min for 1 minute, and the bottom of the plate was dried. A 384-well plate was scanned with an Azure WB imaging system (Sapphire) and the data was read.
The GSPT1 protein degradation activity of the compounds of the present disclosure in CAL51 cells was measured by the above assay, and the protein degradation rate of each sample well was calculated based on the raw data.
[formula] • Sample reading: refers to the signal value of the experimental group; • DSMO reference mean reading; refers to the mean signal value of the DSMO control group. No test compound was added to the […], and other operations were consistent with those of the experimental group.
Data analysis was performed by GraphPad Prism 9. The concentration-effect curves were obtained using a nonlinear four-parameter fitting, and DC50 of compounds was calculated:
[formula] • Wherein: • X: Log of the compound concentration. • Y: degradation rate (%); • Bottom is the minimum percent degradation: • Top is the maximum percent degradation: • HillSlope is the slope coefficient of the curve.

CAL51 cells = assay: Anti-proliferative activity experiment on CAL51 cells (CellTiter-Glo 3D); assay type: cell-based; details: Homo sapiens, CAL-51, 72 h, CAL51 cell spheroid, incubated 3 days
Protocol: The medium of target cells CAL51 (CBP60360, Kebai) was removed, and PBS was added for rinsing once, and then digested with trypsin (Trypsin-EDTA (0.25%)) for 5 minutes. After digestion, 10 mL of complete medium (DMEM containing 10% FBS) was added to neutralize trypsin, and the cells were pipetted and collected, then centrifuged at 300 g for 5 min, counted. The cell density was adjusted to 40,000 cells/mL. 90 μL cell suspension was added to a 96-well low adsorption plate. 200 μL of PBS was added to the edge wells. The plate was centrifuged at 300 g for 5 minutes to form cell spheroid, which were then incubated in a cell incubator overnights. […]
The cells were removed from the incubator and returned to room temperature for […]. 50 μL of CellTiter-Glo® 3D Cell Viability Assay reagent was added, and the plate was shaked and mixed well for 10 minutes, and then the plate was read with an Envision plate reader.
The anti-proliferative activity of the compound of the present disclosure on CAL51 cells was measured by the above assay, and the cell growth inhibition rate of each sample well was calculated based on the raw data.
[formula] • Sample reading: refers to the signal value of the experimental group; • DMSO reference mean reading: refers to the mean signal value of the DMSO control group. […]

Structure (SMILES) | IC50 [1] [nM] | DC50 (GSPT1 protein) [nM] | Dmax (GSPT1 protein) [%] | IC50 (CAL51 cells) [nM]
Cc1ccc(NC(=O)NCc2ccc3c(c2)cc2n3C(=O)N(C3CCC(=O)NC3=O)C2)cc1Cl (centres unmarked) [Compound 2, 1-(3-chloro-4-methylphenyl)-3-((2-(2,6-dioxopiperidin-3-yl)-3-oxo-2,3-dihydro-1H-imidazo [1,5-a]indol-7-yl)methyl) urea] |  | 86.3 | 95.4 | 
CNc1cc(C#CC(=O)NCc2ccc3c(c2)cc2n3C(=O)N(C3CCC(=O)NC3=O)C2)ccc1C (centres unmarked) [Compound 4, N-((2-(2,6-dioxopiperidin-3-yl)-3-oxo-2,3-dihydro-1H-imidazo [1,5-a]indol-7-yl)methyl)-3-(4-methyl-3-(methylamino)phenyl) propinamide] |  | 144 | 85.3 | 
O=C1CCC(N2Cc3cc4cc(COC(=O)Nc5cc(OC(F)(F)F)ccc5F)ccc4n3C2=O)C(=O)N1 (centres unmarked) [Compound 5, 2-(2,6-dioxopiperidin-3-yl)-3-oxo-2,3-dihydro-1H-imidazo [1,5-a] indol-7-yl) methyl (2-fluoro-5-trifluoromethoxy) phenyl) carbamate] |  | 20 | 96.7 | 
CNCCOCCc1cc(NC(=O)OCc2ccc3c(c2)cc2n3C(=O)N(C3CCC(=O)NC3=O)C2)ccc1Cl (centres unmarked) [Compound 9, (2-(2,6-dioxopiperidin-3-yl)-3-oxo-2,3-dihydro-1H-imidazo [1,5-a]indol-7-yl) methyl-(4-chloro-3-(2-(2-(methylamino)ethoxy)ethyl)phenyl) carbamate] |  | 1460 | 69.6 | 

The next lines start with results.

IC50 [1] [nM] | DC50 (GSPT1 protein) [nM] | Dmax (GSPT1 protein) [%] | Structure (SMILES) | IC50 (CAL51 cells) [nM]
1000 to 10000 |  |  | O=C1CCC(N2Cc3cc4ccccc4n3C2=O)C(=O)N1 (centres unmarked) [Compound 1, 3-(3-oxo-1H-imidazo [1,5-a]indol-2 (3H)-yl) piperidine-2,6-dione] | 
 | 25.4 | 98.3 | Cc1ccc(NC(=O)OCc2ccc3c(c2)cc2n3C(=O)N(C3CCC(=O)NC3=O)C2)cc1Cl (centres unmarked) [Compound 3, (2-(2,6-dioxopiperidin-3-yl)-3-oxo-2,3-dihydro-1H-imidazo [1,5-a]indol-7-yl) methyl-(3-chloro-4-methylphenyl) carbamate] | 39
 | 13 | 94.6 | CNc1ccc(NC(=O)OCc2ccc3c(c2)cc2n3C(=O)N(C3CCC(=O)NC3=O)C2)cc1Cl (centres unmarked) [Compound 8, (2-(2,6-dioxopiperidin-3-yl)-3-oxo-2,3-dihydro-1H-imidazo [1,5-a]indol-7-yl) methyl-(3-chloro-4-(methylamino)phenyl) carbamate] | 
 | 135 | 96.3 | Cc1ccc(NC(=O)OCc2cccc3c2cc2n3C(=O)N(C3CCC(=O)NC3=O)C2)cc1Cl (centres unmarked) [Compound 13, 2-(2,6-dioxopiperidin-3-yl)-3-oxo-2,3-dihydro-1H-imidazo [1,5-a] indol-8-yl) methyl (3-chloro-4-methylphenyl) carbamate] | 
1000 to 10000 |  |  | O=C1CCC(N2Cc3nc4ccccc4n3C2=O)C(=O)N1 (centres unmarked) [Compound 14, 3-(1-oxo-1H-benzo [d]imidazo [1,5-a]imidazol-2 (3H)-yl) piperidine-2,6-dione] | 
